According to PubChem BioAssay AID1902 (Broad Institute, 2009):
Calls of active or inactive are those of the source.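 Rule for the calls: active = EC50 no more than a set limit of log units above the highest dose; inactive = the rest.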

Target: S. pyogenes SKKanGAS, kanamycin survival, BacTiterGlo, 6 h
Assay: SKKanGAS survival reduction under kanamycin, dose response, streptokinase promoter inhibitor project, SKKanGAS strain, luminescence, dose confirmation (AID 1902);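 note: lower survival reflects blocked streptokinase promoter driving kanamycin resistance gene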

Row | SMILES | EC50
1 | COc1ccc(C(=O)NNC(=S)NC(=O)c2ccco2)cc1 | 2290 nM
2 | COCC1=C(C(=O)OC(C)OC(=O)OC(C)C)N2C(=O)[C@@H](NC(=O)/C(=N\OC)c3csc(N)n3)[C@H]2SC1 (stereo partly drawn) | 797 nM
3 | Oc1cccc(NC(=S)N=Nc2c(O)[nH]c3ccc(Br)cc23)c1 | 2320 nM
4 | CCOc1ccccc1C(=O)OCC(=O)Nc1nnc(-c2ccccc2)o1 | 6940 nM
5 | Cc1nn(Cc2c(Cl)cccc2Cl)c(C)c1NC(=O)c1cn(-c2ccccc2)nc1-c1ccccc1 | 9330 nM
6 | CCC1(C)Cc2ccccc2-c2nc(-c3ccccc3)oc(=O)c21 (stereo not drawn) | 5510 nM
7 | O=c1cc(C(F)(F)F)[nH]c2c(C(F)(F)F)cccc12 | 2340 nM
8 | CN1C(=O)NC(c2ccccc2)(C(F)(F)F)S/C1=C(/C#N)c1nnc(N2CCOCC2)n1-c1ccccc1 (stereo not drawn) | > 15000 nM (inactive)
9 | COc1cc(/C=N/NC(=O)c2nnn(-c3nonc3N)c2C(C)C)ccc1OCc1ccc(F)cc1 | 11300 nM
10 | Cc1cc(Oc2cnn(C(C)(C)C)c(=O)c2Cl)cc(C(C)C)c1 | 4370 nM
11 | CCN(c1ccccc1)S(=O)(=O)c1ccc(C(=O)Nc2nnc(-c3ccco3)o2)cc1 | 2040 nM
12 | Oc1ccc(/C=N/Nc2nc(N3CCCCCC3)nc(N3CCCCCC3)n2)c(O)c1 | 1730 nM
13 | COc1cccc2c1C(=O)c1c(O)c3c(c(O)c1C2=O)C[C@@](O)(C(=O)CO)C[C@@H]3O[C@H]1C[C@H](N)[C@H](O)[C@H](C)O1 | 1150 nM
14 | Cc1oc(-c2ccccc2Cl)nc1Cn1cccc1C1=NC(c2ccccc2)CO1 (stereo not drawn) | > 15000 nM (inactive)
15 | O=C(COc1ccc(-c2ccccc2)cc1)N/N=C/c1cc(O)ccc1Br | 2270 nM
16 | CCCCCn1c(CN2CCN(c3cc(Cl)ccc3C)CC2)nc2c1c(=O)[nH]c(=O)n2C | 2500 nM
17 | O=C(CN1CCc2ccccc2C1)Nc1ccccc1N1CCCCCC1 | 2420 nM
18 | CC1(C(=O)NC(=S)NNC(=O)c2ccncc2)CCCCC1 | 1100 nM
19 | C/C(=N\NC(=O)c1cc2ccccc2cc1O)c1cc2ccccc2o1 | 1460 nM
20 | COC(=O)C1=NN(C(=O)c2cccc(Br)c2)C(O)(c2ccc(Cl)cc2)C1 (stereo not drawn) | 1300 nM
21 | Cc1cc([N+](=O)[O-])cc(/C=N\NC(=O)C2COc3ccccc3O2)c1O (stereo not drawn) | 1520 nM
22 | c1ccc(-c2nc(C3CCCCC3)c3sccc3n2)cc1 | 3310 nM
23 | COc1cccc(-c2nnc(NC(=O)c3ccc(S(=O)(=O)N4CC(C)OC(C)C4)cc3)o2)c1 (stereo not drawn) | 1160 nM
24 | C/C(=N\NC(=O)COc1ccccc1-c1ccccc1)c1ccccn1 | 667 nM
25 | S=C(NCC1CCCCC1)Nc1ccc(Oc2ccccc2)cc1 | 11000 nM
26 | Cc1cc(NC(=O)c2c(F)cccc2Cl)n(-c2nc3ccccc3[nH]2)n1 | 8040 nM
27 | CCN1CCN(C(CNS(=O)(=O)c2ccc(C)cc2)c2cccnc2)CC1 (stereo not drawn) | > 15000 nM (inactive)

Row | SMILES | EC50
28 | Oc1c(C(Nc2nc3ccccc3s2)c2ccco2)ccc2cccnc12 (stereo not drawn) | 2980 nM
29 | CC1CC(=O)c2c(cc3c(-c4c(O)cc(O)c5c(O)c6c(cc45)OC(C)CC6=O)c(O)cc(O)c3c2O)O1 (stereo not drawn) | 501 nM
30 | Cc1nn(-c2ccccc2)c(Cl)c1C1C(C#N)=C(N)OC2=C1C(=O)CC(C)(C)C2 (stereo not drawn) | 1450 nM
31 | COc1cccc(N=Nc2ccc3cccnc3c2O)c1 | < 60 nM
32 | Nc1nonc1-c1nc2ccccc2n1CC(=O)N/N=C/c1ccc(-c2cccc(C(=O)O)c2)o1 | 3020 nM
33 | CC(C)Cn1c(=O)c(C(=O)N/N=C/c2cccc(F)c2)c(O)c2ccccc21 | 1830 nM
34 | C/C(=N\Nc1nc2ccccc2[nH]1)c1ccc2c(c1)OCO2 | 4280 nM
35 | CCc1ccc(-c2cc(C(=O)N/N=C/c3c[nH]c4ccccc34)[nH]n2)cc1 | 5960 nM
36 | O=C(NC(=S)N1CCN(c2ccc(F)cc2)CC1)C12CC3CC(CC(C3)C1)C2 | 11100 nM
37 | c1csc(-c2csc3nc(CN4CCOCC4)nc(NCc4ccc5c(c4)OCO5)c23)c1 | 4940 nM
38 | O=C(CSc1nc(N2CCOCC2)nc(N2CCOCC2)n1)Nc1cccc(C(F)(F)F)c1 | > 15000 nM (inactive)
39 | O=C(NNC1=Nc2cccc3cccc1c23)c1ccc(Br)cc1 | 220 nM
40 | Cn1c(-c2cc(Br)ccc2O)n[nH]c1=S | 9920 nM
41 | CC(C)(C)N/N=C1\CC(c2ccccc2)Oc2ccccc21 (stereo not drawn) | 3030 nM
42 | CC(C)(C)c1cc[n+](C2=C([O-])c3ccccc3C(=O)/C2=N\S(=O)(=O)c2cccs2)cc1 | 2020 nM
43 | COc1cccc(/C=N/NC(=O)c2c(C)nc3ccc(Cl)cn23)c1O | 5630 nM
44 | Cc1ccccc1/C=C1\Sc2ccc(C(=O)N3CCN(c4ccccn4)CC3)cc2N(C)C1=O | 6470 nM
45 | CCCc1cc(=O)n2[nH]cc(-c3ccc(Cl)cc3)c2n1 | 1780 nM
46 | Cc1ccc(Oc2nc(-c3ccccn3)nc3ccccc23)cc1 | < 60 nM
47 | COc1ccc(OCC(=O)NNC(=S)NC(=O)C2CC2)cc1 | 4110 nM
48 | Cc1ccccc1OCC(=O)NC(=S)Nc1ccc(Br)c(C)n1 | > 15000 nM (inactive)
49 | COc1ccc(C(=O)OCC(=O)Nc2nnc(-c3ccccc3)o2)cc1 | 6540 nM
50 | O=C(CSc1nnc(CNC(=O)c2ccccc2)o1)NCCc1ccccc1 | > 15000 nM (inactive)
51 | N/C(=N\NC(=O)c1sccc1OCc1ccc(Cl)cc1Cl)c1ccccn1 | 3320 nM
52 | Cc1sc2ncnc(N/N=C/c3ccccc3O)c2c1C | 4090 nM
53 | CC(/C=C1\SC(=S)N(NS(=O)(=O)c2ccc(C)cc2)C1=O)=C\c1ccccc1 | 2880 nM
